Assay: Free curcumin stability and consumption in the presence of AAPH (absorbance at 420 nm, HPLC)
Format: physicochemical
Description: Periodic samples were collected and read at 420 nm using a Cary 50 UV-Vis Microplate Reader spectroscopy instrument to monitor absorbance of solution over 24 hours.

COc1cc(/C=C/C(=O)CC(=O)/C=C/c2ccc(O)c(OC)c2)ccc1O [Curcumin]
time curcumin was stable in aqueous solution (no significant change in absorbance, no precipitation) (50 μg/mL curcumin in 0.1% (w/v) Tween 80 PBS (pH 7.4), 37° C., no AAPH): over 24 hours | time after which the amount of curcumin decreases to 20% (10 mM AAPH): 4 h | curcumin consumed (10 mM AAPH solution, within the first 8 hours): 90% | time after which the amount of curcumin decreases to 20% (100 mM AAPH): 0.333 h | time of finality of curcumin consumption, experimental (100 mM AAPH): 8 h | curcumin consumed (100 mM AAPH solution, within the first hour): 90% | curcuminoid consumption susceptibility by AAPH (HPLC peak) (versus demethoxycurcumin and bisdemethoxycurcumin, FIG. 3): diminished at a faster rate
